Consider 25 compounds from patent US20230159510A1, “NOVEL PRMT5 INHIBITORS” (AMGEN INC., priority 2020, published 2023).

Read-outs that look alike come from different tables or passages of the source.

Experiment [1] concerns the target PRMT5/MEP50 (Homo sapiens, UniProt O14744). In words: MTase-Glo methyl transferase assay, Method A (Histone H4 peptide, 1 µM MTA, 24 h pre-incubation). It counts as biochemical. Also on record: made in house. As to conditions: read-out: PRMT5 MTase Glo Ki (nM, Meth. A). How it is done:
Method A: The PRMT5 inhibitory activity of test compounds was determined using the MTase-Glo™ assay (Promega), which monitors the product (S-adenosyl homocysteine or SAH) of methyltransferase reactions. The PRMT5 MTase-Glo assay was conducted in a 384-well white ProxiPlate (PerkinElmer) in a total volume of 12 µL. The PRMT5 enzymatic reaction (in 4 µL) contained 10 nM PRMT5/MEP50 (produced at Amgen), 5 µM S-adenosyl methionine (SAM, Promega), 1 µM Histone H4 (1-21)-Lys(Biotin) (Anaspec), 1 µM 5′-methylthioadenosine (MTA, Sigma) and two-fold serially diluted compounds in a reaction buffer of 50 mM Tris (pH 8.0), 50 mM NaCl, 0.01% Tween 20, 0.01% BSA, and 1 mM DTT. Test compounds were pre-incubated with PRMT5/MEP50, SAM, and MTA for 24 hours before addition of Histone H4 peptide to initiate the PRMT5 reaction. The reaction was allowed to proceed for 2 hours at room temperature and was then terminated by addition of 2 µL of 3X MTase-Glo™ Reagent (Promega) and 150 µM EPZ015666 (Sigma). After a 30-minute incubation at room temperature, 6 µL of MTase-Glo™ Detection Solution (Promega) was added and the plate was incubated at room temperature for an additional 30 minutes. The light signal corresponding to the amount of SAH produced by the PRMT5 reaction was subsequently measured using an Envision multimode reader (PerkinElmer). IC50 and KI values were obtained by analyzing dose-response curves using Genedata Screener (Genedata).

Experiment [2] has as its system HCT116 WT cells. The experiment can be described thus: HCT116 proliferation assay, WT cells (CellTiter-Glo, 6 days). It counts as cell-based. Particulars: read-out: Prolif_HCT116-WT IC50. A digest of the protocol: (§1)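 Cells were plated in RPMI 1640 with 10% fetal bovine serum and left overnight at 37° C and 5% CO2. Compound was then added as an 8- or 9-point 1:3 dilution series from a top concentration of 1 or 10 µM, alongside a DMSO-only control. Viability was read by luminescence.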

Experiment [3] deals with HCT116 MTAP null cells. The experiment can be described thus: HCT116 proliferation assay, MTAP null cells (CellTiter-Glo, 6 days). It counts as cell-based. As to conditions: read-out: Protif_ HCT116-MTAP null IC50. A digest of the protocol:
as §1

Sequence of PRMT5/MEP50 (O14744 whole entry): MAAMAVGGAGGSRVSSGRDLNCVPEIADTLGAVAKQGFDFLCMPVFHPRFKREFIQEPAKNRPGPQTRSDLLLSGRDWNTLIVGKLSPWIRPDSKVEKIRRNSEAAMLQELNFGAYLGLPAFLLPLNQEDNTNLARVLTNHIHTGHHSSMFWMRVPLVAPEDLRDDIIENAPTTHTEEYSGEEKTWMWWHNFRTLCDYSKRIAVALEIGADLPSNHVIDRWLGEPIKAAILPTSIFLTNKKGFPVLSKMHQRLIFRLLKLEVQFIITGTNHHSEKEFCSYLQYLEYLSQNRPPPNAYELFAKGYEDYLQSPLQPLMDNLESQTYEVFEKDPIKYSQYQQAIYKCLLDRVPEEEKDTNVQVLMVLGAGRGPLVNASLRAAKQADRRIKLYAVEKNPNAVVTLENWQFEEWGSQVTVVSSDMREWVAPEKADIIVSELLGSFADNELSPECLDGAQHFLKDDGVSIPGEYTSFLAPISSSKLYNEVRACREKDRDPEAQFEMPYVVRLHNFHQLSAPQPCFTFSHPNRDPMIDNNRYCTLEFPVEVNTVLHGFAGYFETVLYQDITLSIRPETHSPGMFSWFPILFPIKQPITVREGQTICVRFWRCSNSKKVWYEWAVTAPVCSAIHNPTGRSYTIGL
Sequence of PRMT5/MEP50 (Q9BQA1 whole entry partner): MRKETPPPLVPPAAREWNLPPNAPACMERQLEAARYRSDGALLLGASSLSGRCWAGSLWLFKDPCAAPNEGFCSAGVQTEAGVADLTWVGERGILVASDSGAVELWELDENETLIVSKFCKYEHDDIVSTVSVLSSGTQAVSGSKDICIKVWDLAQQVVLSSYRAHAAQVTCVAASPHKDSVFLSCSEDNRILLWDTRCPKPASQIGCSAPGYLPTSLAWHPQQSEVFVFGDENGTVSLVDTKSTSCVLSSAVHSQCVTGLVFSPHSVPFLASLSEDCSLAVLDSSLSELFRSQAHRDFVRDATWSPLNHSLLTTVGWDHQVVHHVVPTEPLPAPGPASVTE

Turning to `Cc1cc2cc(C(=O)N(Cc3ccc(C(F)(F)F)cn3)Cc3c(F)cccc3F)ccc2nc1N` [Example 344, 2-amino-N-(2,6-difluorobenzyl)-3-methyl-N-((5-(trifluoromethyl)-2-pyridinyl)methyl)-6-quinolinecarboxamide], in experiment [1], the inhibition constant Ki (as a rule, a dissociation constant, usually derived from enzyme kinetics or from competition with a known ligand) stood at 0.1 nM. Also, the IC50 – broadly, the concentration that gives 50% inhibition – in experiment [2] (Homo sapiens, HCT-116, 144 h) came to 1800 nM; in experiment [3] (HCT116-MTAP null, 144 h), 73 nM.
For `Cc1cc2cc(C(=O)N(Cc3ccc(C(F)(F)F)nc3)Cc3ncccc3F)ccc2nc1N` [Example 322, 2-amino-N-((3-fluoro-2-pyridinyl)methyl)-3-methyl-N-((6-(trifluoromethyl)-3-pyridinyl)methyl)-6-quinolinecarboxamide], the Ki in experiment [1] amounted to 1.09 nM. The 50% inhibitory concentration (IC50) in experiment [2] (Homo sapiens, HCT-116, 144 h) was above 10000 nM; in experiment [3] (HCT116-MTAP null, 144 h) it was 385 nM.
As to `Cc1cc2cc(C(=O)N(Cc3ccc(Br)nn3)[C@@H]3CCCn4ncnc43)ccc2nc1N` [Example 416, 2-amino-N-((6-bromo-3-pyridazinyl)methyl)-3-methyl-N-((8R)-5,6,7,8-tetrahydro[1,2,4]triazolo[1,5-a]pyridin-8-yl)-6-quinolinecarboxamide], the inhibition constant (Ki) in experiment [1] turned out to be 0.17 nM. Moreover, the half-maximal inhibitory concentration (IC50) is 6650 nM in experiment [2] (Homo sapiens, HCT-116, 144 h) and 262 nM in experiment [3] (HCT116-MTAP null, 144 h).
With `COc1ccc(CN(C(=O)c2ccc3nc(N)c(C)cc3c2)[C@H](C)c2ncccn2)nn1` (single isomer, unassigned) [Example 517, 2-amino-N-((6-methoxy-3-pyridazinyl)methyl)-3-methyl-N-((IR)-1-(2-pyrimidinyl)ethyl)-6-quinolinecarboxamide], the Ki in experiment [1] is 0.07 nM. In addition, in experiment [3] (HCT116-MTAP null, 144 h), the concentration for half-maximal inhibition (IC50) turned out to be 73 nM.
As to `Cc1cc2cc(C(=O)N(Cc3ccc(Br)nn3)[C@H](C)c3ncn(C)n3)ccc2nc1N` (single isomer, unassigned) [Example 536], the inhibition constant (Ki) in experiment [1] stood at 0.02 nM. In addition, the IC50 turned out to be 1460 nM in experiment [2] (Homo sapiens, HCT-116, 144 h) and 44 nM in experiment [3] (HCT116-MTAP null, 144 h).
On the same counts, the results for `C[C@H](c1ncccn1)N(Cc1ccc(C(F)F)cn1)C(=O)c1cnc2nc(N)c(Cl)cc2c1` [Example 379] are 0.89 nM, above 10000 nM and 541 nM.
As to `Cc1cc2cc(C(=O)N(Cc3ccc(C#N)cn3)[C@H](C)c3ncccn3)c(F)cc2nc1N` [Example 404, 2-amino-N-((5-cyano-2-pyridinyl)methyl)-7-fluoro-3-methyl-N-((1R)-1-(2-pyrimidinyl)ethyl)-6-quinolinecarboxamide], in experiment [1], the Ki came out at 1.68 nM. Moreover, the concentration for half-maximal inhibition (IC50) came out at 3160 nM in experiment [2] (Homo sapiens, HCT-116, 144 h) and 90 nM in experiment [3] (HCT116-MTAP null, 144 h).
Taken in the same sequence, the figures for `Cc1cc2cc(C(=O)N(Cc3ccc(C#N)cn3)[C@H](C)c3ncc(F)cc3F)ccc2nc1N` [Example 431, 2-amino-N-((5-cyano-2-pyridinyl)methyl)-N-((1R)-1-(3,5-difluoro-2-pyridinyl)ethyl)-3-methyl-6-quinolinecarboxamide] were 0.07 nM, 3210 nM and 173 nM.
Take `Cc1cc2cc(C(=O)N(Cc3ccc(S(=O)(=O)C4CC4)cn3)[C@H](C)c3ncccc3F)ccc2nc1N` [Example 540, (R)-2-amino-N-((5-(cyclopropylsulfonyl)pyridin-2-yl)methyl)-N-(1-(3-fluoropyridin-2-yl)ethyl)-3-methylquinoline-6-carboxamide]: the inhibition constant (Ki) in experiment [1] was determined as 0.17 nM. The half-inhibitory concentration (IC50) is 6270 nM in experiment [2] (Homo sapiens, HCT-116, 144 h) and 194 nM in experiment [3] (HCT116-MTAP null, 144 h).
Turning to `Cc1cc2cc(C(=O)N(Cc3ccc4[nH]ncc4c3)Cc3ccc(C(F)(F)F)cn3)ccc2nc1N` [Example 369, 2-amino-N-(1H-indazol-5-ylmethyl)-3-methyl-N-((5-(trifluoromethyl)-2-pyridinyl)methyl)-6-quinolinecarboxamide], the Ki in experiment [1] was 0.17 nM. The IC50 was found to be 3400 nM in experiment [2] and 138 nM in experiment [3].
Consider `Cc1cc2cc(C(=O)N(CC(C)C)[C@H](C)c3ccc(C(F)(F)F)cn3)ccc2nc1N` (single isomer, unassigned) [Example 472], for which, in experiment [1], the inhibitory constant (Ki) came to 1.04 nM. Further, the half-maximal inhibitory concentration (IC50) in experiment [2] (Homo sapiens, HCT-116, 144 h) is above 10000 nM; in experiment [3] (HCT116-MTAP null, 144 h), 889 nM.
Taken in the same sequence, the figures for `C[C@H](c1ncn(C)n1)N(Cc1ccc(C(F)F)cn1)C(=O)c1cnc2nc(N)c(Br)cc2c1` (single isomer, unassigned) [Example 535] were 0.34 nM, above 10000 nM and 552 nM.
Consider `C[C@H](c1ncccc1F)N(Cc1ccc(Br)nn1)C(=O)c1cnc2nc(N)c(Br)cc2c1` [Example 424, 7-amino-6-bromo-N-((6-bromo-3-pyridazinyl)methyl)-N-((1R)-1-(3-fluoro-2-pyridinyl)ethyl)-1,8-naphthyridine-3-carboxamide], for which the inhibition constant Ki in experiment [1] is 0.61 nM. Also, the concentration for half-maximal inhibition (IC50) turned out to be 9080 nM in experiment [2] (Homo sapiens, HCT-116, 144 h) and 319 nM in experiment [3] (HCT116-MTAP null, 144 h).
On the same counts, the results for `Cc1cc2cc(C(=O)N(Cc3ccc(N4CC5(COC5)C4)cn3)[C@H](C)c3ncccn3)ccc2nc1N` [Example 556, (R)-N-((5-(2-oxa-6-azaspiro[3.3]heptan-6-yl)pyridin-2-yl)methyl)-2-amino-3-methyl-N-(1-(pyrimidin-2-yl)ethyl)quinoline-6-carboxamide] are 4.1 nM, 10100 nM and 342 nM.
In the case of `[2H]C([2H])([2H])Oc1ccc(CN(C(=O)c2ccc3nc(N)c(C)cc3c2)[C@H](C)c2ncccn2)nc1` (single isomer, unassigned) [Example 493], the Ki in experiment [1] stood at 0.26 nM. The concentration for half-maximal inhibition (IC50) in experiment [2] (Homo sapiens, HCT-116, 144 h) is 4080 nM; in experiment [3] (HCT116-MTAP null, 144 h), 146 nM.
On to `CC[C@H](c1ncccn1)N(Cc1ccc(C(F)(F)F)cn1)C(=O)c1ccc2nc(N)c(C)cc2c1` (single isomer, unassigned) [Example 489], for which the Ki in experiment [1] was determined as 0.06 nM. In experiment [3] (HCT116-MTAP null, 144 h), the 50% inhibitory concentration (IC50) is 27 nM.
On to `Cc1cc2cc(C(=O)N(Cc3ccc(Br)c(C)n3)[C@H](C)c3ncccn3)ccc2nc1N` (single isomer, unassigned) [Example 465], for which the inhibitory constant (Ki) in experiment [1] is below 0.1 nM. Further, the 50% inhibitory concentration (IC50) in experiment [3] (HCT116-MTAP null, 144 h) was found to be 24 nM.
Taken in the same sequence, the figures for `Cc1cc2cc(C(=O)N(Cc3ncccc3F)[C@@H]3CCc4nc(C(F)(F)F)ccc43)ccc2nc1N` (single isomer, unassigned) [Example 463] were 1.23 nM and 683 nM.
Take `COc1ccc(CN(C(=O)c2cnc3nc(N)c(Br)cc3c2)[C@H](C)c2ncccn2)nn1` (single isomer, unassigned) [Example 478]: the Ki in experiment [1] was found to be 0.31 nM. For the same compound, in experiment [3] (HCT116-MTAP null, 144 h), the 50% inhibitory concentration (IC50) amounted to 594 nM.
Turning to `COc1cnc(CN(C(=O)c2ccc3nc(N)c(C)cc3c2)[C@H](C)c2ncccn2)cn1` (single isomer, unassigned) [Example 476], in experiment [1], the Ki was found to be 0.83 nM. Moreover, the IC50 in experiment [3] (HCT116-MTAP null, 144 h) is 660 nM.
Regarding `Cc1cc2cc(C(=O)N(Cc3ccc(C(F)(F)F)cn3)C(C)c3cccc(C#N)n3)ccc2nc1N` (stereo not shown) [Example 806, 2-amino-N-(1-(6-cyanopyridin-2-yl)ethyl)-3-methyl-N-((5-(trifluoromethyl)pyridin-2-yl)methyl) quinoline-6-carboxamide], the half-inhibitory concentration (IC50) in experiment [2] (Homo sapiens, HCT-116, 144 h) was found to be 6800 nM; in experiment [3] (HCT116-MTAP null, 144 h), 552 nM.
Regarding `COC[C@H](C1CC1)N(Cc1ccc(N2CCOCC2)nn1)C(=O)c1ccc2nc(N)c(Br)cc2c1` [Example 732, 2-amino-3-bromo-N-((1S)-1-cyclopropyl-2-methoxyethyl)-N-((6-(4-morpholinyl)-3-pyridazinyl)methyl)-6-quinolinecarboxamide], the 50% inhibitory concentration (IC50) was above 10000 nM in experiment [2] (Homo sapiens, HCT-116, 144 h) and 231 nM in experiment [3] (HCT116-MTAP null, 144 h).
For `Cc1cc2cc(C(=O)N(Cc3ccc(C(F)(F)F)cn3)[C@@H]3COCC[C@H]3F)ccc2nc1N` (mixture of isomers) [Example 749, 2-amino-N-((3R,4R)-4-fluorotetrahydro-2H-pyran-3-yl)-3-methyl-N-((5-(trifluoromethyl)-2-pyridinyl)methyl)-6-quinolinecarboxamide and 2-amino-N-((3S,4S)-4-fluorotetrahydro-2H-pyran-3-yl)-3-methyl-N-((5-(trifluoromethyl)-2-pyridinyl)methyl)-6-quinolinecarboxamide], the IC50 was found to be 2150 nM in experiment [2] (Homo sapiens, HCT-116, 144 h) and 95 nM in experiment [3] (HCT116-MTAP null, 144 h).
Taken in the same sequence, the figures for `Cc1cc2cc(C(=O)N(Cc3ccc(N4CCOCC4)cn3)[C@H](C)c3ncccn3)ccc2nc1N` [Example 764, (R)-2-amino-3-methyl-N-((5-morpholinopyridin-2-yl)methyl)-N-(1-(pyrimidin-2-yl)ethyl)quinoline-6-carboxamide] were 4220 nM and 287 nM.
For `C[C@H](c1ncccn1)N(Cc1ccc(C(F)(F)F)cn1)C(=O)c1ccc2nc(N)ccc2c1` [Example 765, (R)-2-amino-N-(1-(pyrimidin-2-yl)ethyl)-N-((5-(trifluoromethyl)pyridin-2-yl)methyl)quinoline-6-carboxamide], the IC50 came to 512 nM in experiment [2] (Homo sapiens, HCT-116, 144 h) and 180 nM in experiment [3] (HCT116-MTAP null, 144 h).
